In US20050197350A1, “Novel quinoline, tetrahydroquinazoline, and pyrimidine derivatives and methods of treatment related to the use thereof” (TAISHO PHARMACEUTICAL CO., LTD., priority 2003, published 2005):
Like-named read-outs stand apart in the source and are kept apart here.

Tested on: MCH receptors
Assay: MCH receptor activity class (method not given)
[1] = activity class per percent of control at 10^-7 M or IC50
[2] = class by percent of control at 10^-7 M or IC50
[3] = class 1-3 by percent of control at 10^-7 M or IC50
[4] = MCH receptor, class by percent of control at 10^-7 M or IC50
[5] = class by percent of control at 10^−7 M or IC50
[6] = activity class 1-3: percent of control at 10^-7 M or IC50
[7] = MCH receptor activity class 1-3 (percent of control at 10^-7 M or IC50)

CCCCC/C(=C\c1ccccc1)CN[C@H]1CC[C@@H](Nc2cc(N(C)C)c3ccccc3n2)CC1 [compound 1111]
class [1]: 3 (Class 3 The value of percent of control at 10^−7 M was more than 60% or the value of IC50 was more than 200 nM.)

CN(C)c1nc(N[C@H]2CC[C@@H](NC(=O)c3cc([N+](=O)[O-])cn3C)CC2)nc2c1CCCC2 [compound 1044]
class [1]: 1 (Class 1: The value of percent of control at 10^−7 M was less than 40% or the value of IC50 was less than 50 nM.)

Cc1cc(N(C)C)nc(N[C@H]2CC[C@@H](NC(=O)c3ccc(F)cc3)CC2)n1 [Example 2570, N-(cis-4-{[4-(dimethylamino)-6-methylpyrimidin-2-yl]amino}cyclohexyl)-4-fluorobenzamide]
class: 1

COc1ccc(CNC[C@H]2CC[C@@H](Nc3nc4c(c(N(C)C)n3)CCCC4)CC2)cc1OC [compound 1435]
class [2]: 3 (Class 3 The value of percent of control at 10^−7 M was more than 60% or the value of IC50 was more than 200 nM.)

COc1cc(COC(=O)N[C@H]2CC[C@@H](Nc3nc4c(c(N(C)C)n3)CCCC4)CC2)c([N+](=O)[O-])cc1OC [compound 555]
class [3]: 3 (Class 3 The value of percent of control at 10^−7 M was more than 60% or the value of IC50 was more than 200 nM.)

Cc1ccc(Cl)cc1NC(=O)N[C@H]1CC[C@@H](Nc2nc3c(c(N(C)C)n2)CCCC3)CC1 [compound 1900]
class [4]: 3 (Class 3 The value of percent of control at 10^−7 M was more than 60% or the value of IC50 was more than 200 nM.)

Cc1cc(C)c2occ(CN[C@H]3CC[C@@H](Nc4nccc(N(C)C)n4)CC3)c(=O)c2c1 [compound 1229]
class [2]: 3 (Class 3 The value of percent of control at 10^−7 M was more than 60% or the value of IC50 was more than 200 nM.)

Cc1ccc(CNC(=O)N[C@H]2CC[C@@H](Nc3nc4c(c(N(C)C)n3)CCCC4)CC2)cc1 [compound 1895]
class [2]: 3 (Class 3 The value of percent of control at 10^−7 M was more than 60% or the value of IC50 was more than 200 nM.)

Cc1cnc(NC[C@H]2CC[C@@H](NC(=O)c3cccc(C(F)(F)F)c3)CC2)nc1N(C)C [compound 2719]
class [5]: 3 (Class 3 The value of percent of control at 10^−7 M was more than 60% or the value of IC50 was more than 200 nM.)

Cc1cnc(N[C@H]2CC[C@@H](NC(=O)COc3cccc(Cl)c3)CC2)nc1N(C)C [compound 2879, 2-(3-chlorophenoxy)-N-(cis-4-{[4-(dimethylamino)-5-methylpyrimidin-2-yl]amino}cyclohexyl)acetamide]
class [5]: 1 (Class 1: The value of percent of control at 10^−7 M was less than 40% or the value of IC50 was less than 50 nM.)

CN(C)c1nc(N[C@H]2CC[C@@H](NC(=O)c3ccccc3Sc3ccccc3C#N)CC2)nc2c1CCCC2 [compound 1011]
class [1]: 3 (Class 3 The value of percent of control at 10^−7 M was more than 60% or the value of IC50 was more than 200 nM.)

CN(C)c1nc(N[C@H]2CC[C@@H](NC(=O)c3ccc(-c4ccc(Cl)cc4)o3)CC2)nc2c1CCCC2 [compound 973]
class [2]: 1 (Class 1: The value of percent of control at 10^−7 M was less than 40% or the value of IC50 was less than 50 nM.)

COc1cccc(CNC[C@H]2CC[C@@H](Nc3nc4c(c(N(C)C)n3)CCCC4)CC2)c1OC [compound 1418]
class [2]: 3 (Class 3 The value of percent of control at 10^−7 M was more than 60% or the value of IC50 was more than 200 nM.)

CN(C)c1nc(N[C@H]2CC[C@@H](NC(=O)c3cccc(C(F)(F)F)c3F)CC2)nc2c1CCCC2 [compound 500]
class [3]: 3 (Class 3 The value of percent of control at 10^−7 M was more than 60% or the value of IC50 was more than 200 nM.)

Cc1ccc(C(=O)N[C@H]2CC[C@@H](Nc3ncc(C)c(N(C)C)n3)CC2)cc1F [compound 2924, N-(cis-4-{[4-(dimethylamino)-5-methylpyrimidin-2-yl]amino}cyclohexyl)-3-fluoro-4-methylbenzamide]
class [5]: 1 (Class 1: The value of percent of control at 10^−7 M was less than 40% or the value of IC50 was less than 50 nM.)

CN(C)c1nc(N[C@H]2CC[C@@H](NC(=S)Nc3ccccc3F)CC2)nc2c1CCCC2 [compound 1978]
class [4]: 3 (Class 3 The value of percent of control at 10^−7 M was more than 60% or the value of IC50 was more than 200 nM.)

CN(C)c1ccnc(N[C@H]2CC[C@@H](CNC(=O)Oc3ccccc3)CC2)n1 [compound 1652]
class [6]: 3 (Class 3 The value of percent of control at 10^−7 M was more than 60% or the value of IC50 was more than 200 nM.)

CCOc1ccccc1NC(=S)N[C@H]1CC[C@@H](Nc2cc(N(C)C)c3ccccc3n2)CC1 [compound 2302]
class [7]: 3 (Class 3 The value of percent of control at 10^−7 M was more than 60% or the value of IC50 was more than 200 nM.)

CN(C)c1nc(N[C@H]2CC[C@@H](NC(=S)Nc3cc(F)ccc3F)CC2)nc2c1CCCC2 [compound 1935]
class [4]: 3 (Class 3 The value of percent of control at 10^−7 M was more than 60% or the value of IC50 was more than 200 nM.)

CN(C)c1ccnc(N[C@H]2CC[C@@H](NC(=O)Cc3ccc(Cl)cc3)CC2)n1 [compound 246]
class [2]: 3 (Class 3 The value of percent of control at 10^−7 M was more than 60% or the value of IC50 was more than 200 nM.)

Cc1cc(N(C)C)nc(N[C@H]2CC[C@@H](C(=O)NCc3ccc(Br)cc3F)CC2)n1 [Example 2585, cis-N-(4-bromo-2-fluorobenzyl)-4-{[4-(dimethylamino)-6-methylpyrimidin-2-yl]amino}cyclohexanecarboxamide]
class: 1

COc1cccc(CNC[C@H]2CC[C@@H](Nc3cc(N(C)C)c4ccccc4n3)CC2)c1O [compound 1196]
class [2]: 3 (Class 3 The value of percent of control at 10^−7 M was more than 60% or the value of IC50 was more than 200 nM.)

COc1cc(CC(=O)N[C@H]2CC[C@@H](Nc3cc(N(C)C)c4ccccc4n3)CC2)cc(OC)c1 [compound 702]
class [2]: 3 (Class 3 The value of percent of control at 10^−7 M was more than 60% or the value of IC50 was more than 200 nM.)

COc1cc(CN[C@H]2CC[C@@H](Nc3nc4c(c(N(C)C)n3)CCCC4)CC2)cc(I)c1O [compound 1343]
class [2]: 2 (Class 2: The value of percent of control at 10^−7 M was from 40% to 60% or the value of IC′50 was from 50 nM to 200 nM.)

CN(C)c1nc(N[C@H]2CC[C@@H](CNCc3cccc(C#N)c3)CC2)nc2c1CCCC2 [compound 1405]
class [2]: 3 (Class 3 The value of percent of control at 10^−7 M was more than 60% or the value of IC50 was more than 200 nM.)

CN(C)c1cc(N[C@H]2CC[C@@H](NC(=O)C(CC(=O)c3ccc(Br)cc3)c3c[nH]c4ccccc34)CC2)nc2ccccc12 (relative stereo) [compound 717]
class [2]: 3 (Class 3 The value of percent of control at 10^−7 M was more than 60% or the value of IC50 was more than 200 nM.)

CN(C)c1nc(N[C@H]2CC[C@@H](NC(=O)Nc3ccccc3Br)CC2)nc2c1CCCC2 [compound 1693]
class [6]: 3 (Class 3 The value of percent of control at 10^−7 M was more than 60% or the value of IC50 was more than 200 nM.)

CSc1ccc(CN[C@H]2CC[C@@H](Nc3cc(N(C)C)c4ccccc4n3)CC2)cc1 [compound 1118]
class [1]: 3 (Class 3 The value of percent of control at 10^−7 M was more than 60% or the value of IC50 was more than 200 nM.)

COc1ccc(Cl)cc1NC(=S)N[C@H]1CC[C@@H](Nc2nc3c(c(N(C)C)n2)CCCC3)CC1 [compound 2023]
class [4]: 3 (Class 3 The value of percent of control at 10^−7 M was more than 60% or the value of IC50 was more than 200 nM.)

Cc1c(NC(=O)N[C@H]2CC[C@@H](Nc3nccc(N(C)C)n3)CC2)cccc1[N+](=O)[O-] [compound 2201]
class [2]: 3 (Class 3 The value of percent of control at 10^−7 M was more than 60% or the value of IC50 was more than 200 nM.)

CCCSc1ncccc1C(=O)NC[C@H]1CC[C@@H](Nc2cc(N(C)C)c3ccccc3n2)CC1 [compound 211]
class [4]: 3 (Class 3 The value of percent of control at 10^−7 M was more than 60% or the value of IC50 was more than 200 nM.)

COc1cc(CC(=O)N[C@H]2CC[C@@H](Nc3cc(N(C)C)c4ccccc4n3)CC2)ccc1OCc1ccccc1 [compound 736]
class [2]: 3 (Class 3 The value of percent of control at 10^−7 M was more than 60% or the value of IC50 was more than 200 nM.)

CCC[C@H]1CC[C@H](c2ccc(NC(=S)N[C@H]3CC[C@@H](Nc4nc5c(c(N(C)C)n4)CCCC5)CC3)cc2)CC1 [compound 1943]
class [4]: 3 (Class 3 The value of percent of control at 10^−7 M was more than 60% or the value of IC50 was more than 200 nM.)

COc1ccc([N+](=O)[O-])cc1NC(=S)N[C@H]1CC[C@@H](Nc2nc3c(c(N(C)C)n2)CCCC3)CC1 [compound 2039]
class [4]: 3 (Class 3 The value of percent of control at 10^−7 M was more than 60% or the value of IC50 was more than 200 nM.)

CN(C)c1cc(N[C@H]2CC[C@@H](CNC(=O)/C=C/c3ccc([N+](=O)[O-])cc3)CC2)nc2ccccc12 [compound 206]
class [4]: 2 (Class 2: The value of percent of control at 10^−7 M was from 40% to 60% or the value of IC′50 was from 50 nM to 200 nM.)

CN(C)c1nc(N[C@H]2CC[C@@H](NC(=O)/C=C/c3cccc([N+](=O)[O-])c3)CC2)nc2c1CCCC2 [compound 959]
class [2]: 3 (Class 3 The value of percent of control at 10^−7 M was more than 60% or the value of IC50 was more than 200 nM.)

Cc1cc(N[C@H]2CC[C@@H](NC(=O)c3cccc(C#N)c3)CC2)nc2ccccc12 [Example 2550, 3-cyano-N-{cis-4-[(4-methylquinolin-2-yl)amino]cyclohexyl}benzamide]
class: 1

CN(C)c1cc(N[C@H]2CC[C@@H](CNC(=O)Nc3ccc(F)cc3)CC2)nc2ccccc12 [compound 2364]
class [7]: 3 (Class 3 The value of percent of control at 10^−7 M was more than 60% or the value of IC50 was more than 200 nM.)

COc1cc(CNC[C@H]2CC[C@@H](Nc3nc4c(c(N(C)C)n3)CCCC4)CC2)cc(I)c1O [compound 1381]
class [2]: 1 (Class 1: The value of percent of control at 10^−7 M was less than 40% or the value of IC50 was less than 50 nM.)
